# Data from US6355799B1, “Substituted benzene compounds, process for their preparation, and herbicidal and defoliant compositions containing them” (ISK Americas Incorporated, priority 1997, dated 2002).
# How the values were obtained:
# Type in all cases: in vivo
# [1] = system: redroot pigweed (Amaranthus retroflexus, AMARE); test: Pre-emerge test, greenhouse herbicide activity screening; details: pre-emerge, 14 days after application, scale 0-100
# How it was run: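 Rating: 0–100 visual injury, 14 DAA. Application: acetone, 187 l/ha, 15–1000 g ai/ha, flat-fan track sprayer with nozzle 40–45 cm above soil or canopy. Post-emerge runs used 0.25% v/v surfactant on 2–3 leaf plants.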
# [2] = system: field corn (Zea mays L., var. Dekalb 535, CORN); test: Post-emerge test, crop safety; details: post-emerge, 14 days after application, rating scale 0-100
# How it was run: (§1)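 Sandy loam pots; pre-emerge: sown 1 d pre-spray, surface-watered after, then bottom-watered. Post-emerge: sown 8–21 d before, 2–3 leaf stage, + 0.25% v/v NIS, bottom-watered. Acetone, 187 l/ha track spray, 15–1000 g ai/ha. 0–100 injury score, day 14.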
# [3] = system: upland rice (Oryza sp., var. Tebonnet, RICE); test: Post-emerge test, crop safety; details: post-emerge, 14 days after application, rating scale 0-100
# How it was run: as §1
# [4] = system: sicklepod (Cassia obtusifolia, CASOB); test: Pre-emerge test, greenhouse herbicide activity screening; details: pre-emerge, 14 days after application, scale 0-100
# How it was run: as §1
# [5] = system: velvetleaf (Abutilon theophrasti, ABUTH); test: as above; details: pre-emerge, 14 days after application, scale 0-100
# How it was run: as §1
# [6] = system: ivyleaf morningglory (Ipomoea hederacea, IPOHE); test: as above; details: pre-emerge, 14 days after application, scale 0-100
# How it was run: as §1
# [7] = system: large crabgrass (Digitaria sanguinalis, DIGSA); test: as above; details: pre-emerge, 14 days after application, scale 0-100
# How it was run: as §1
# [8] = system: barnyardgrass (Echinochloa crus-galli, ECHCG); test: as above; details: pre-emerge, 14 days after application, scale 0-100
# How it was run: as §1
# [9] = system: johnsongrass (Sorghum halepense, SORHA); test: as above; details: pre-emerge, 14 days after application, scale 0-100
# How it was run: as §1
# [10] = system: lambsquarters (Chenopodium album, CHEAL); test: as above; details: pre-emerge, 14 days after application, scale 0-100
# How it was run: as §1
# [11] = system: green foxtail (Setaria viridis, SETVI); test: as above; details: pre-emerge, 14 days after application, scale 0-100
# How it was run: as §1
# [12] = system: field corn (Zea mays L., var. Dekalb 535, CORN); test: Pre-emerge test, crop safety; details: pre-emerge, 14 days after application, scale 0-100
# How it was run: (§2)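 Herbicidal damage is scored 0 (none) to 100 (complete plant death) two weeks after a simulated field spray. Rates span 15–1000 g ai/ha, delivered in acetone at 187 l/ha. For post-emergence treatments, plants have 2–3 leaves and the spray carries 0.25% v/v non-ionic surfactant.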
# [13] = system: upland rice (Oryza sp., var. Tebonnet, RICE); test: Pre-emerge test, crop safety; details: pre-emerge, 14 days after application, scale 0-100
# How it was run: as §2
# [14] = system: sicklepod (Cassia obtusifolia, CASOB); test: Post-emerge test, greenhouse herbicide activity screening; details: post-emerge, 14 days after application, rating scale 0-100
# How it was run: (§3)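 Applied at 15–1000 g ai/ha from acetone in 187 l/ha spray volume. Post-emergence applications included 0.25% v/v non-ionic surfactant and reached plants sown 8–21 days before. Pre-emergence applications were incorporated by surface watering. Efficacy or crop damage was rated on a 0–100 scale after 14 days.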
# [15] = system: velvetleaf (Abutilon theophrasti, ABUTH); test: as above; details: post-emerge, 14 days after application, rating scale 0-100
# How it was run: as §3
# [16] = system: common ragweed (Ambrosia artemisizfolia L., AMBEL); test: as above; details: post-emerge, 14 days after application, rating scale 0-100
# How it was run: as §3
# [17] = system: ivyleaf morningglory (Ipomoea hederacea, IPOHE); test: as above; details: post-emerge, 14 days after application, rating scale 0-100
# How it was run: as §3
# [18] = system: large crabgrass (Digitaria sanguinalis, DIGSA); test: as above; details: post-emerge, 14 days after application, rating scale 0-100
# How it was run: as §3
# [19] = system: redroot pigweed (Amaranthus retroflexus, AMARE); test: as above; details: post-emerge, 14 days after application, rating scale 0-100
# How it was run: as §3
# [20] = system: barnyardgrass (Echinochloa crus-galli, ECHCG); test: as above; details: post-emerge, 14 days after application, rating scale 0-100
# How it was run: as §3
# [21] = system: johnsongrass (Sorghum halepense, SORHA); test: as above; details: post-emerge, 14 days after application, rating scale 0-100
# How it was run: as §3
# [22] = system: lambsquarters (Chenopodium album, CHEAL); test: as above; details: post-emerge, 14 days after application, rating scale 0-100
# How it was run: as §3
# [23] = system: green foxtail (Setaria viridis, SETVI); test: as above; details: post-emerge, 14 days after application, rating scale 0-100
# How it was run: as §3
structure (smiles),measurement,setting,value
COc1c(Cl)cc(F)c(-n2c(=O)cc(C(F)(F)F)n(C)c2=O)c1NC(=O)Cc1ccccc1 [2-151],phytotoxicity rating AMARE,[1]; 63 g ai/ha,0
same,phytotoxicity rating AMARE,[1]; 250 g ai/ha,0
same,CORN phytotoxicity rating (crop damage),[2]; 63 g ai/ha,0
same,CORN phytotoxicity rating (crop damage),[2]; 250 g ai/ha,0
same,RICE phytotoxicity rating (crop damage),[3]; 63 g ai/ha,0
same,RICE phytotoxicity rating (crop damage),[3]; 250 g ai/ha,10
same,phytotoxicity rating CASOB,[4]; 63 g ai/ha,0
same,phytotoxicity rating CASOB,[4]; 250 g ai/ha,70
same,phytotoxicity rating ABUTH,[5]; 63 g ai/ha,30
same,phytotoxicity rating ABUTH,[5]; 250 g ai/ha,100
same,phytotoxicity rating IPOHE,[6]; 63 g ai/ha,0
same,phytotoxicity rating IPOHE,[6]; 250 g ai/ha,40
same,phytotoxicity rating DIGSA,[7]; 63 g ai/ha,0
same,phytotoxicity rating DIGSA,[7]; 250 g ai/ha,40
same,phytotoxicity rating ECHCG,[8]; 63 g ai/ha,0
same,phytotoxicity rating ECHCG,[8]; 250 g ai/ha,0
same,phytotoxicity rating SORHA,[9]; 63 g ai/ha,0
same,phytotoxicity rating SORHA,[9]; 250 g ai/ha,40
same,phytotoxicity rating CHEAL,[10]; 63 g ai/ha,0
same,phytotoxicity rating CHEAL,[10]; 250 g ai/ha,80
same,phytotoxicity rating SETVI,[11]; 63 g ai/ha,0
same,phytotoxicity rating SETVI,[11]; 250 g ai/ha,0
same,phytotoxicity rating CORN (crop damage),[12]; 63 g ai/ha,0
same,phytotoxicity rating CORN (crop damage),[12]; 250 g ai/ha,30
same,phytotoxicity rating RICE (crop damage),[13]; 63 g ai/ha,0
same,phytotoxicity rating RICE (crop damage),[13]; 250 g ai/ha,30
same,CASOB phytotoxicity rating,[14]; 63 g ai/ha,10
same,CASOB phytotoxicity rating,[14]; 250 g ai/ha,50
same,ABUTH phytotoxicity rating,[15]; 63 g ai/ha,0
same,ABUTH phytotoxicity rating,[15]; 250 g ai/ha,50
same,AMBEL phytotoxicity rating,[16]; 63 g ai/ha,20
same,AMBEL phytotoxicity rating,[16]; 250 g ai/ha,30
same,IPOHE phytotoxicity rating,[17]; 63 g ai/ha,30
same,IPOHE phytotoxicity rating,[17]; 250 g ai/ha,100
same,DIGSA phytotoxicity rating,[18]; 63 g ai/ha,0
same,DIGSA phytotoxicity rating,[18]; 250 g ai/ha,0
same,AMARE phytotoxicity rating,[19]; 63 g ai/ha,10
same,AMARE phytotoxicity rating,[19]; 250 g ai/ha,20
same,ECHCG phytotoxicity rating,[20]; 63 g ai/ha,0
same,ECHCG phytotoxicity rating,[20]; 250 g ai/ha,0
same,SORHA phytotoxicity rating,[21]; 63 g ai/ha,0
same,SORHA phytotoxicity rating,[21]; 250 g ai/ha,0
same,CHEAL phytotoxicity rating,[22]; 63 g ai/ha,10
same,CHEAL phytotoxicity rating,[22]; 250 g ai/ha,10
same,SETVI phytotoxicity rating,[23]; 63 g ai/ha,0
same,SETVI phytotoxicity rating,[23]; 250 g ai/ha,0
COc1c(Cl)cc(F)c(-n2c(=O)cc(C(F)(F)F)n(C)c2=O)c1NC(=O)c1ccc2c(Br)cccc2c1 [2-158],phytotoxicity rating AMARE,[1]; 63 g ai/ha,100
same,phytotoxicity rating AMARE,[1]; 250 g ai/ha,100
same,CORN phytotoxicity rating (crop damage),[2]; 63 g ai/ha,0
same,CORN phytotoxicity rating (crop damage),[2]; 250 g ai/ha,0
same,RICE phytotoxicity rating (crop damage),[3]; 63 g ai/ha,20
same,RICE phytotoxicity rating (crop damage),[3]; 250 g ai/ha,60
same,phytotoxicity rating CASOB,[4]; 63 g ai/ha,0
same,phytotoxicity rating CASOB,[4]; 250 g ai/ha,0
same,phytotoxicity rating ABUTH,[5]; 63 g ai/ha,80
same,phytotoxicity rating ABUTH,[5]; 250 g ai/ha,95
same,phytotoxicity rating IPOHE,[6]; 63 g ai/ha,0
same,phytotoxicity rating IPOHE,[6]; 250 g ai/ha,0
same,phytotoxicity rating DIGSA,[7]; 63 g ai/ha,80
same,phytotoxicity rating DIGSA,[7]; 250 g ai/ha,95
same,phytotoxicity rating ECHCG,[8]; 63 g ai/ha,50
same,phytotoxicity rating ECHCG,[8]; 250 g ai/ha,80
same,phytotoxicity rating SORHA,[9]; 63 g ai/ha,0
same,phytotoxicity rating SORHA,[9]; 250 g ai/ha,20
same,phytotoxicity rating CHEAL,[10]; 63 g ai/ha,100
same,phytotoxicity rating CHEAL,[10]; 250 g ai/ha,100
same,phytotoxicity rating SETVI,[11]; 63 g ai/ha,0
same,phytotoxicity rating SETVI,[11]; 250 g ai/ha,95
same,phytotoxicity rating CORN (crop damage),[12]; 63 g ai/ha,0
same,phytotoxicity rating CORN (crop damage),[12]; 250 g ai/ha,0
same,phytotoxicity rating RICE (crop damage),[13]; 63 g ai/ha,0
same,phytotoxicity rating RICE (crop damage),[13]; 250 g ai/ha,10
same,CASOB phytotoxicity rating,[14]; 63 g ai/ha,90
same,CASOB phytotoxicity rating,[14]; 250 g ai/ha,100
same,ABUTH phytotoxicity rating,[15]; 63 g ai/ha,95
same,ABUTH phytotoxicity rating,[15]; 250 g ai/ha,100
same,AMBEL phytotoxicity rating,[16]; 63 g ai/ha,50
same,AMBEL phytotoxicity rating,[16]; 250 g ai/ha,100
same,IPOHE phytotoxicity rating,[17]; 63 g ai/ha,20
same,IPOHE phytotoxicity rating,[17]; 250 g ai/ha,80
same,DIGSA phytotoxicity rating,[18]; 63 g ai/ha,0
same,DIGSA phytotoxicity rating,[18]; 250 g ai/ha,30
same,AMARE phytotoxicity rating,[19]; 63 g ai/ha,100
same,AMARE phytotoxicity rating,[19]; 250 g ai/ha,100
same,ECHCG phytotoxicity rating,[20]; 63 g ai/ha,0
same,ECHCG phytotoxicity rating,[20]; 250 g ai/ha,50
same,SORHA phytotoxicity rating,[21]; 63 g ai/ha,0
same,SORHA phytotoxicity rating,[21]; 250 g ai/ha,0
same,CHEAL phytotoxicity rating,[22]; 63 g ai/ha,90
same,CHEAL phytotoxicity rating,[22]; 250 g ai/ha,95
same,SETVI phytotoxicity rating,[23]; 63 g ai/ha,10
same,SETVI phytotoxicity rating,[23]; 250 g ai/ha,70
